Results published in patent publication US11786507B2, “Methods of treating HIV-associated neurological disorders (HAND)” (priority 2020, dated 2023).
“Also recorded” adds a separate entry of the source.

Assays:
iTat mice [1] = assay: Morris Water Maze (MWZ), training stage and probe test; format: in vivo, mouse; conditions: mouse, in vivo
Excerpt: (§1) Doxycycline (Dox)-inducible and astrocyte-specific HIV-1 Tat-transgenic mice (iTat) were generated as previously described.^38 Wild-type (Wt, C57BL/6) and α7 nAChR knockout mice (α7^−/−, B6.129S7-Chrna^7tm1Ba/J) were purchased from the Jackson Laboratory (Bar Harbor, ME). All the animal procedures were approved by the Institutional Animal Care and Use Committee. Mice were housed with a 12-hour light and 12-hour dark photoperiod and provided water and food ad libitum. α7^−/− iTat mice were generated by cross breeding iTat mice with α7^−/− mice. α7^−/− genotyping was slightly modified with the JumpStart™ Taq DNA Polymerase-based PCR (JumpStart™ Taq DNA Polymerase, Sigma, catalog #D9307). […] Mice of 10-14 weeks old with body weights of 20-35 grams were fed with Dox-containing diet (0.625 g/kg, Envigo, catalog #TD.01306) as stated.
Open Field Test (OPT) and Morris Water Maze (MWZ) were performed sequentially using a computerized video tracking system (Anymaze, Stoelting) to determine the spontaneous locomotor activity and spatial learning and memory, respectively. For OPT, each mouse was allowed to move freely around a clear acrylic chamber (40.5×40.5×30.5 cm) for 10 minutes. Travel distance and maximum speed was determined by the AnyMaze software. For MWZ, a circle pool (1.2 m diameter) surrounded with a curtain was divided into four equal quadrants, and four signs with different shape were fixed onto the middle of each quadrant wall above the opaque water (24±1° C.). A hidden platform (1.5 cm below water surface) was put into a certain quadrant. Two stages consisting of 5-day training and probe test were carried out. In the training stage, four trials with a 15-20 minute interval were conducted in the every-day training, and for each trial mice were allowed to freely seek the platform within 90 seconds right after they were randomly put into one quadrant facing to the pool wall. If the mice found the platform within 90 seconds, 10 seconds would be added to allow them staying on the platform for memorizing, however, if failed, they would be directed toward the platform and allowed to stay on it for 15 seconds. Mice that were immobile or floating and unable to find the platform during the training stages were excluded from the experiments. Probe test was carried out on the next day following the 5-day training stage with a 60 seconds trial, and the platform was removed to prevent the mice from climbing onto it during the testing. One day after the behavioral tests, mice were euthanized and the brains were harvested.
To determine if α7 nAChR is involved in HAND, iTat mice were fed with Dox-containing food pellets for 7 days, […], and then subjected to open field test (OPT) for locomotor activity on day 14, and Morris Water Maze test (MWZ) for learning and spatial memory on day 15-20, and euthanized to harvest tissues on day 21 (FIG. 1A). Dox-containing food pellet feeding and PAM injection continued during the next 7 days of behavioral tests. To minimize the effects of injection on behavioral tests, PAM was injected 5 hours after each behavioral test.

iTat mice [2] = assay: Western blotting of SYP, PSD-95, GFAP, Iba-1 in cortex and hippocampus; format: in vivo, mouse
Excerpt: as §1
A RIPA buffer (50 mM Tris.HCl, pH 8.0, 280 mM NaCl, 0.5% NP-40, 1% C24H39NaO4, 0.2 mM EDTA, 2 mM EGTA and 10% glycerol) supplemented with protease inhibitors (Millipore-Sigma, catalog #S8830) and phosphatase inhibitors (Millipore-Sigma, catalog #4906845001) was used to lyse the brain tissues and cultured cells with brief sonication on ice. Protein concentrations of the lysates were determined using a Bio-Rad DC protein assay kit (Bio-Rad, catalog #5000111). Lysates were denatured in the SDS-PAGE loading buffer at 100° C. for 10 min, then electrophoretically separated by 8-15% SDS-PAGE, blotted onto 0.45 μm polyvinylidene fluoride membrane (GE Healthcare Life Sciences, catalog #10600023), and probed using appropriate antibodies against PSD-95 (Abcam, catalog #ab18258, and 1:2000 dilution), SYP (Abcam, catalog #ab8049, and 1:1000 dilution), Iba-1 (Wako, catalog #016-20001, and 1:500 dilution) and GFAP (DAKO, catalog #z330s, and 1:2000 dilution), p-p38 (Santa Cruz, catalog #sc-166182, and 1:1000 dilution), p38 (Santa cruz, catalog #sc-535, and 1:1000 dilution), p-JNK (Santa cruz, catalog #sc-6254, and 1:1000 dilution), JNK (Santa cruz, catalog #sc-571, and 1:1000 dilution), p-ERK (Santa cruz, catalog #sc-7383, and 1:1000 dilution), and ERK (Santa cruz, catalog #sc-514302, and 1:1000 dilution), α7 nAChR (Alomone, catalog #ANC-007, and 1:1000 dilution) and β-actin (Sigma-Aldrich, catalog #A1978, and 1:2000 dilution). A Bio-Rad ChemicDoc imaging system (Bio-Rad) and Image J were used for image capturing and analysis, respectively. […]

[3] = CORT, PAM 15 mg/kg/day s.c. vs DMSO

COc1cc(OC)c(NC(=O)Nc2cc(C)on2)cc1Cl [PAM, 1-(5-chloro-2,4-dimethoxy-phenyl)-3-(5-methyl-isoxazol-3-yl)-urea]
MWZ probe test latency to platform (iTat mice [1]): decreases of latency to platform in both male iTat and Wt mice | MWZ probe test platform entries, time at platform, distance to platform (iTat mice [1]): no differences | MWZ probe test time at target quadrant and distance to target quadrant (iTat mice [1]): reversed by PAM treatment with the differences in distance to target quadrant | MWZ training stage cumulative travel distance (iTat mice [1]): differences of cumulative travel times in male iTat mice on day 4 and female iTat mice on day 2 | MWZ training stage escape latency and cumulative distance (iTat mice [1]): only some improvements on male Wt mice | MWZ training stage escape latency time (iTat mice [1]): differences of escape latency time in male iTat mice on day 4 and 5 and female iTat mice on day 2 and 4 | GFAP expression (iTat mice [2]; [3]): completely reversed the increases; also recorded: decreased GFAP in iTat mice | Iba-1 expression (iTat mice [2]; [3]): decreased Iba-1 in both Wt and iTat mice | PSD-95 expression (iTat mice [2]; [3]): significant increases of PSD-95 in Wt mice and even more in iTat mice | SYP expression (iTat mice [2]; [3]): no changes | SYP and GFAP expression (iTat mice [2]; HIP, DMSO- vs PAM-treated mice): no differences of SYP and GFAP | PSD-95 expression (iTat mice [2]; HIP, PAM 15 mg/kg/day s.c. vs DMSO): increased PSD-95 in both Wt and iTat mice
